Square brackets hold non-standard residues; d marks the D form. Ends that are not written are not given here. Peptide text beside a SMILES is read from it. * marks the point of attachment. Nicotinoyl = O=C(c1cccnc1)*; βAla = NCCC(=O)O
Experiments:
B16F10 melanocytes = experiment: Screening of niacin-peptides: inhibition of melanogenesis against α-MSH; format: cell-based, mouse; design: key: relative to absorbance (490 nm) of α-MSH-only positive control; settings: 20 μg/ml α-MSH plus 10 ng/ml peptide, 3 days, UV 490 nm, α-MSH-only positive control as standard
Method: The present inventors screened skin whitening peptides by measuring decrease in melanogenesis using the niacin-peptide libraries prepared in Example 1. B16F10 melanocytes (the Korean Cell Line Bank) were incubated with α-MSH to induce melanogenesis and the inhibition of melanogenesis by the peptide libraries was analyzed. The mouse melanocytes were cultured at 37° C. in 5% CO2 atmosphere in DMEM supplemented with 10% FBS. The cells were seeded in each well of a 96-well plate (5×10^4 cells/well) and their attachment was verified. Afterwards, the control group was incubated with only solvent, the positive control group was incubated with 20 μg/ml of α-MSH and the other wells was incubated with 20 μg/ml of α-MSH and 10 ng/ml of peptides for 3 days.
The inhibition rates of melanogenesis by treatment of each peptide prepared in Example 1 were measured at UV 490 nm. The inhibition rates were calculated using the absorbance value of the positive control group incubated with only α-MSH as a standard, which are summarized in Table 1. The candidate peptides analyzed to show excellent screening results were selected and synthesized in a 100-μmole scale for further experiments. FIG. 1 represents the screening result of niacin-peptides.

B16F10 cells = experiment: Skin whitening effect: melanogenesis at various concentrations in α-MSH-treated melanocytes; format: cell-based, mouse; settings: 1, 10, 100 and 250 μg/ml, 3 days
Method: Cells were treated with various concentrations of niacin-peptide, followed by measuring activity in inhibition of melanogenesis. The mouse melanocytes were cultured at 37° C. in 5% CO2 atmosphere in DMEM supplemented with 10% FBS. The cells were seeded in each well of a 24-well plate (1×10^5 cells/well) and their attachment was verified. Cells were incubated with each test group for 3 days: (a) only solvent as negative control; (b) 20 μg/ml α-MSH as a positive control; (c) 20 μg/ml α-MSH plus 1, 10, 100 and 250 μg/ml niacin-peptides (NA-PG, NAPS, NA-ET and NA-VS); (d) 1, 10, 100 and 250 μg/ml arbutin; and (e) 1, 10, 100 and 250 μg/ml AA2G.
FIG. 5 is images of melanocytes representing treatment effects of NA-PS and PS peptides on melanogenesis decrease rate in a concentration dependent manner.
For analyzing the release amount of melanin, the absorbance values of the culture medium were measured at 490 nm.

[1] = Stability of niacin-peptides in human serum; format: in vitro ADME; settings: 100 μg/ml, incubated with human serum for 10 hr
Method: The prepared solutions were introduced into glass vials and kept to stand at 40° C. for 7, 14, 21, 28, 35, 42 and 60 days. […] The present inventors tested stability of niacin-peptides in human serum. Niacin-peptides (nicotinoyl-PS, 100 μg/ml) or niacin-unlinked peptide (PS, 100 μg/ml) was incubated with human serum for 10 hr, and the amount of residual peptides was measured at every hour. According to the result of the comparative stability experiment, when nicotinoyl-PS (nicotinoyl group linked to the N-terminal of PS peptide) was incubated with the serum for 10 hr, the stability of niacin-peptides was 20% higher than the control group (niacin-unlinked peptide).

[2] = system: melanin movement from melanocytes to keratinocytes; settings: cited from earlier work

nicotinoyl-GPHyp
Screening value: Inhibition of melanogenesis against α-MSH (B16F10 melanocytes): 0.89

nicotinoyl-GEPG (Nicotinoyl-GEPG)
Screening value: Inhibition of melanogenesis against α-MSH (B16F10 melanocytes): 0.96

nicotinoyl-KVARP (Nicotinoyl-KVARP)
Screening value: Inhibition of melanogenesis against α-MSH (B16F10 melanocytes): 0.96

nicotinoyl-YPFF-NH2 (Nicotinoyl-YPFF-NH2; SMILES NC(=O)[C@H](Cc1ccccc1)NC(=O)[C@H](Cc1ccccc1)NC(=O)[C@@H]1CCCN1C(=O)[C@H](Cc1ccc(O)cc1)NC(=O)c1cccnc1)
Screening value: Inhibition of melanogenesis against α-MSH (B16F10 melanocytes): 0.85

nicotinoyl-VPAA (Nicotinoyl-VPAA)
Screening value: Inhibition of melanogenesis against α-MSH (B16F10 melanocytes): 0.85

nicotinoyl-KTTKS (Nicotinoyl-KTTKS)
Screening value: Inhibition of melanogenesis against α-MSH (B16F10 melanocytes): 0.92

nicotinoyl-GRKG (Nicotinoyl-GRKG)
Screening value: Inhibition of melanogenesis against α-MSH (B16F10 melanocytes): 0.93

nicotinoyl-GPRPA-NH2 (Nicotinoyl-GPRPA-NH2; SMILES C[C@H](NC(=O)[C@@H]1CCCN1C(=O)[C@H](CCCNC(=N)N)NC(=O)[C@@H]1CCCN1C(=O)CNC(=O)c1cccnc1)C(N)=O)
Screening value: Inhibition of melanogenesis against α-MSH (B16F10 melanocytes): 0.7

nicotinoyl-KRGKP (Nicotinoyl-KRGKP)
Screening value: Inhibition of melanogenesis against α-MSH (B16F10 melanocytes): 0.84

nicotinoyl-KLAKK (Nicotinoyl-KLAKK)
Screening value: Inhibition of melanogenesis against α-MSH (B16F10 melanocytes): 0.96

nicotinoyl-ISELGW (Nicotinoyl-ISELGW)
Screening value: Inhibition of melanogenesis against α-MSH (B16F10 melanocytes): 0.64

nicotinoyl-YGY (Nicotinoyl-Tyr-Gly-Tyr)
Screening value: Inhibition of melanogenesis against α-MSH (B16F10 melanocytes): 0.69

nicotinoyl-TYR (Nicotinoyl-Thr-Tyr-Arg)
Screening value: Inhibition of melanogenesis against α-MSH (B16F10 melanocytes): 0.72

nicotinoyl-RKDVY (Nicotinoyl-RKDVY)
Screening value: Inhibition of melanogenesis against α-MSH (B16F10 melanocytes): 0.87

nicotinoyl-YGYTGA (Nicotinoyl-YGYTGA)
Screening value: Inhibition of melanogenesis against α-MSH (B16F10 melanocytes): 0.95

OC[C@H]1O[C@@H](Oc2ccc(O)cc2)[C@H](O)[C@@H](O)[C@@H]1O [arbutin]
cell number compared with the α-MSH treated group (B16F10 cells): significantly decreased

nicotinoyl-SSNA (Nicotinoyl-SSNA)
Screening value: Inhibition of melanogenesis against α-MSH (B16F10 melanocytes): 0.71

nicotinoyl-YT
Screening value: Inhibition of melanogenesis against α-MSH (B16F10 melanocytes): 0.75

nicotinoyl-VEPIPY (Nicotinoyl-VEPIPY)
Screening value: Inhibition of melanogenesis against α-MSH (B16F10 melanocytes): 0.81

nicotinoyl-FWY (Nicotinoyl-Phe-Trp-Tyr)
Screening value: Inhibition of melanogenesis against α-MSH (B16F10 melanocytes): 0.61

nicotinoyl-YGGFM (Nicotinoyl-YGGFM)
Screening value: Inhibition of melanogenesis against α-MSH (B16F10 melanocytes): 0.81

nicotinoyl-PLG-NH2 (Nicotinoyl-Pro-Leu-Gly-NH2; SMILES CC(C)C[C@H](NC(=O)[C@@H]1CCCN1C(=O)c1cccnc1)C(=O)NCC(N)=O)
Screening value: Inhibition of melanogenesis against α-MSH (B16F10 melanocytes): 0.92

nicotinoyl-VGVAPG (Nicotinoyl-VGVAPG)
Screening value: Inhibition of melanogenesis against α-MSH (B16F10 melanocytes): 0.95

nicotinoyl-NP
Screening value: Inhibition of melanogenesis against α-MSH (B16F10 melanocytes): 0.8

O=C(O)[C@H](CO)NC(=O)[C@@H]1CCCN1C(=O)c1cccnc1 [nicotinoyl-PS] (Nicotinoyl-Pro-Ser-OH)
stability higher than the control group (niacin-unlinked peptide PS) [1]: 20%

nicotinoyl-GPQGPQ (Nicotinoyl-GPQGPQ)
Screening value: Inhibition of melanogenesis against α-MSH (B16F10 melanocytes): 0.88

nicotinoyl-KAKA (Nicotinoyl-KAKA)
Screening value: Inhibition of melanogenesis against α-MSH (B16F10 melanocytes): 0.87

nicotinoyl-YGGFL
Screening value: Inhibition of melanogenesis against α-MSH (B16F10 melanocytes): 0.78

nicotinoyl-EEMQRR-NH2 (Nicotinoyl-EEMQRR-NH2; SMILES CSCC[C@H](NC(=O)[C@H](CCC(=O)O)NC(=O)[C@H](CCC(=O)O)NC(=O)c1cccnc1)C(=O)N[C@@H](CCC(N)=O)C(=O)N[C@@H](CCCNC(=N)N)C(=O)N[C@@H](CCCNC(=N)N)C(N)=O)
Screening value: Inhibition of melanogenesis against α-MSH (B16F10 melanocytes): 0.86

nicotinoyl-DKYV
Screening value: Inhibition of melanogenesis against α-MSH (B16F10 melanocytes): 0.87

nicotinoyl-GQPR (Nicotinoyl-GQPR)
Screening value: Inhibition of melanogenesis against α-MSH (B16F10 melanocytes): 0.83

nicotinoyl-GHR (Nicotinoyl-Gly-His-Arg)
Screening value: Inhibition of melanogenesis against α-MSH (B16F10 melanocytes): 0.75

nicotinoyl-SIKVAV (Nicotinoyl-SIKVAV)
Screening value: Inhibition of melanogenesis against α-MSH (B16F10 melanocytes): 0.72

nicotinoyl-AHK (Nicotinoyl-Ala-His-Lys)
Screening value: Inhibition of melanogenesis against α-MSH (B16F10 melanocytes): 0.8

nicotinoyl-KVK (Nicotinoyl-Lys-Val-Lys)
Screening value: Inhibition of melanogenesis against α-MSH (B16F10 melanocytes): 1.01

nicotinoyl-KRGDR (Nicotinoyl-KRGDR)
Screening value: Inhibition of melanogenesis against α-MSH (B16F10 melanocytes): 0.92

NC(=O)c1cccnc1 [Niacinamide]
decrease of melanin movement from melanocytes to keratinocytes [2]: 68%

nicotinoyl-beta-AHSH (Nicotinoyl-[βAla]HSH)
Screening value: Inhibition of melanogenesis against α-MSH (B16F10 melanocytes): 0.82
